The subject of assay [1] is monocyte-derived dendritic cells (moDCs). Description: AAV2 vector transduction of monocyte-derived dendritic cells (moDCs). In kind it is cell-based, human. To be noted: 50 μM, WT scAAV2-EGFP, 48 hrs p.i. How it is done:
Cells and Antibodies. HEK293, HeLa and NIH3T3 cells were obtained from the American Type Culture Collection and maintained as monolayer cultures in DMEM (Invitrogen, Inc.) supplemented with 10% FBS (Sigma-Aldrich Co.) and antibiotics (Lonza, Inc.). Leukapheresis-derived peripheral blood mononuclear cells (PBMCs) (AllCells) were purified on Ficoll-Paque (GEHeathCare), resuspended in serum-free AIM-V medium (Lonza, Inc.), and semi-adherent cell fractions were incubated for 7 days with recombinant human IL-4 (500 U/mL) and GM-CSF (800 U/mL) (R&D Systems). Cell maturation was initiated with a cytokine mixture including 10 ng/mL TNF-α, 10 ng/mL IL-1, 10 ng/mL IL-6, and 1 mg/mL PGE2 (R&D Systems) for 48 hrs. Prior to EGFP expression cells were characterized for co-stimulatory molecules expression to ensure that they met the typical phenotype of mature dendritic cells (mDC) (CD80, RPE, murine IgG1; CD83, RPE, murine IgG1; CD86, FITC, murine IgG1; Invitrogen, Inc.). (Jayandharan et al., 2011)
Recombinant AAV Vector Transduction Assays In Vitro. […] Transgene expression was assessed as the total area of green fluorescence (pixel2) per visual field (mean±SD) as described previously (Markusic et al., 2011; Jayandharan et al., 2011). Analysis of variance was used to compare test results and the control, which were determined to be statistically significant.

A further assay concerns human CD34+ cells. The assay can be described thus: Ex vivo transduction of human CD34+ cells by AAV serotype and tyrosine-mutant AAV6 vectors. In kind it is cell-based. The method, then: Human bone marrow CD34^+ and umbilical cord blood CD34^+ cells either were purchased from All-Cells (Berkeley, Calif., USA), or were obtained under an institutional review board-approved protocol, and maintained in either StemSpan SFEM medium ([…] Technologies, Inc, Vancouver, BC, CANADA) or IMDM with 10 ng/mL rhIL6 (PeproTech), 10 ng/mL rhIL3 (PeproTech, Rocky Hill, N.J., USA) and 1 ng/mL rhSCF (R&D Systems, Minneapolis, Minn., USA). CD34^+ cell purity was determined by flow cytometry and was >90%. Mouse HSCs, which were positive for Sca-1 and c-kit and negative for lineage markers (c-kit^+, Sca-1^+, lin^−), were isolated from 4-month-old male C57BL/6 mice as previously reported with slight modification. Briefly, femurs and tibias were obtained from C57BL/6 mice, and bone marrow cells were flushed from the bones with phosphate-buffered saline (PBS). […] APC-conjugated CD117 (c-kit) antibody and Alexa Fluor 700 conjugated Sca-1 antibody (Miltenyi Biotec Inc) were used during fluorescence-activated cell sorting (FACS). […]
Ex vivo transduction of HSCs. […] Mock-infected or infected cells were infused into recipient mice immediately after infection, or examined for transgene expression by fluorescence microscopy or by flow cytometry (Accuri C6; BD Biosciences) 48-72 hrs after infection.

The next assay relates to HEK293 cells. Description: AAV2 vector transduction assay in HEK293 cells (serine mutants, kinase inhibitors). In kind it is cell-based, human. To be noted: 50 μM, 1 hr; 1,000 vgs per cell. The method, then: Recombinant AAV Vector Transduction Assays In Vitro. HEK293 or monocyte-derived dendritic cells (moDCs), were transduced with AAV2 vectors with 1,000 vgs/cell or 2,000 vgs/cell respectively, and incubated for 48 hr. Alternatively, cells were pretreated with 50 μM of selective serine/threonine kinase inhibitors 2-(2-hydroxyethylamino)-6-aminohexylcarbamic acid tert-butyl ester-9-isopropylpurine (for CaMK-II), anthra[1,9-cd]pyrazol-6(2H)-one, 1,9-pyrazoloanthrone (for JNK), and 4-(4-fluorophenyl)-2-(4-methylsulfinylphenyl)-5-(4-pyridyl)1H-imidazole (for MAPK) (CK59, JNK inhibitor 2, PD 98059, Calbiochem), 1 hr before transduction. Transgene expression was assessed as the total area of green fluorescence (pixel2) per visual field (mean±SD) as described previously (Markusic et al., 2011; Jayandharan et al., 2011). Analysis of variance was used to compare test results and the control, which were determined to be statistically significant.

The subject of assay [2] is HeLa cells. Description: Recombinant AAV2 vector transduction assay in vitro (EGFP imaging). In kind it is cell-based, human. The method, then:
Recombinant AAV2 Vector Transduction Assays in Vitro. Approximately 1×10^5 HeLa cells were used for transductions with recombinant AAV2 vectors. The transduction efficiency was measured 48-hr post-transduction by EGFP imaging using fluorescence microscopy. Images from three to five visual fields were analyzed quantitatively by ImageJ analysis software (NIH, Bethesda, Md., USA). Transgene expression was assessed as total area of green fluorescence (pixel^2) per visual field (mean±SD). Analysis of variance (ANOVA) was used to compare between test results and the control and they were determined to be statistically significant.
The transduction efficiency of each of the tyrosine-mutant vectors was analyzed and compared with the WT scAAV2-EGFP vector in HeLa cells in vitro under identical conditions. […] Specifically, the transduction efficiency of Y444F, Y500F, Y730F vectors was ˜8- to 11-fold higher than the WT vector.
In a second study, HeLa cells, either mock-treated or treated with Tyr23, a specific inhibitor of EGFR-PTK, or MG132, a proteasome inhibitor, both known to increase the transduction efficiency of AAV vectors, were mock-infected or infected with the WT or Y730F scAAV2-EGFP vectors.

A further assay concerns Huh7 cells. The assay can be described thus: AAV3 vector transduction assay in Huh7 cells. In kind it is cell-based, human. To be noted: increasing concentrations, 2 hr. The method, then:
(§1) AAV Vector Transduction Assays. Huh7 or HeLa cells were seeded in 96-well plates at a concentration of 5,000 cells per well in complete DMEM medium. AAV infections were performed in serum- and antibiotic-free DMEM medium. Hep293TT cells were seeded in 96-well plates at a concentration of 10,000 cells per well in complete RPMI medium. The infections were performed in serum- and antibiotic-free RPMI medium. The expression of EGFP was analyzed by direct fluorescence imaging 72 hrs' post-transduction.

A further assay concerns Hep293TT cells. Description: AAV3 vector transduction assay in Hep293TT cells. In kind it is cell-based, human. The method, then: as §1
Assay [3] concerns HeLa cells. The assay can be described thus: scAAV2 transduction of HeLa cells with MG132 or Tyr23 (positive control). In kind it is cell-based, human. To be noted: MG132 5 μM; Tyr23 200 μM. The method, then:
as §1
Proteasome Inhibitors Increase the Transduction Efficiency of AAV3 Vectors. […] To evaluate whether MG132 can also improve AAV3 trafficking in target cells, Huh7, a well-established human hepatocellular carcinoma cell line (Nakabayashi et al., 1982), and Hep293TT, a recently established human hepatoblastoma cell line (Chen et al., 2009), were either mock-treated or treated with increasing concentrations of MG132. […] Transgene expression was determined by fluorescence microscopy 72 hrs post-transduction.
Previous studies have also shown that inhibition of EGFR-PTK signaling by Tyrphostin 23 (Tyr23), a specific inhibitor of EGFR-PTK (May et al., 1998), modulates the Ub/proteasome pathway, which in turn, facilitates intracellular trafficking and transgene expression mediated by AAV2 vectors (Zhong et al., 2007). […] Transgene expression was determined 72 hr post-transduction.

Peptide text beside a SMILES is read from it. * marks the point of attachment. Cbz = O=C(OCc1ccccc1)*

Consider `O=C1c2ccccc2-c2n[nH]c3cccc1c23` [JNK inhibitor, anthra[1,9-cd]pyrazol-6(2H)-one, 1,9-pyrazoloanthrone], for which the “increase of EGFP expression levels by inhibitor pre-treatment” value in assay [1] is listed as roughly 2 fold.

For “epidermal growth factor: epidermal growth factor”, the “effect on transduction efficiency of AAV6 vectors in CD34+ cells” value with human CD34+ cells was “no effect”.

On to `C[S+]([O-])c1ccc(-c2nc(-c3ccc(F)cc3)c(-c3ccncc3)[nH]2)cc1` (centres unmarked) [p38 MAPK inhibitor, 4-(4-fluorophenyl)-2-(4-methylsulfinylphenyl)-5-(4-pyridyl)1H-imidazole], for which, in the assay with HEK293 cells, the “transduction efficiency of ssAAV2 and scAAV2 vectors after inhibitor pre-treatment” value is reported as “most effective”.

For the compound `CC(C)C[C@@H](C=O)NC(=O)[C@H](CC(C)C)NC(=O)[C@H](CC(C)C)NC(=O)OCc1ccccc1` [MG132] (Cbz-Leu-Leu-Leu-aldehyde), the “increase in transduction efficiency of WT scAAV2-EGFP by pretreatment” value with HeLa cells [2] is recorded as roughly 6 fold. Moreover, the “transduction efficiency of scAAV3 vectors after treatment” value with Huh7 cells and in the assay on Hep293TT cells (2 hr treatment) was “dose-dependent increase” in each case. In addition, the “amounts of internalized viral DNA in presence or absence of inhibitor” value in the assay on Hep293TT cells is “no significant difference”. For the same compound, the “transduction efficiency of scAAV2 vectors after pretreatment” value in the assay with HeLa cells [3] is “significantly increased”.
